Results on 33 compounds are retold here after ChEMBL document CHEMBL1149322, “Carbonic anhydrase inhibitors. Inhibition of mitochondrial isozyme V with aromatic and heterocyclic sulfonamides” (J Med Chem, 2004).

In one assay the target is T1, Carbonic anhydrase 4 (Bos taurus, UniProt Q95323).
T1 sequence (Q95323 whole entry): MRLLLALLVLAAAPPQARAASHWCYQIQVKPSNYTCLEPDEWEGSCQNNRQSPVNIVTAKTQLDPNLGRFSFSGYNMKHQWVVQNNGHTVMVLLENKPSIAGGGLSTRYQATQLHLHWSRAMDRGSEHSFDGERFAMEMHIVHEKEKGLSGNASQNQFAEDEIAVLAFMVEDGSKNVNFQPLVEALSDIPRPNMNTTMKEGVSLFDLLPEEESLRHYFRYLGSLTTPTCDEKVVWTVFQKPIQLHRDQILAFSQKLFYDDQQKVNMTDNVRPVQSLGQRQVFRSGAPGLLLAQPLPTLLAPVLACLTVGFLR

For the next assay, the target named is Carbonic anhydrase 2 (Homo sapiens, UniProt P00918).
The target in another assay is Carbonic anhydrase 1 (Homo sapiens, UniProt P00915).
Chain of Carbonic anhydrase 1 (P00915 whole entry): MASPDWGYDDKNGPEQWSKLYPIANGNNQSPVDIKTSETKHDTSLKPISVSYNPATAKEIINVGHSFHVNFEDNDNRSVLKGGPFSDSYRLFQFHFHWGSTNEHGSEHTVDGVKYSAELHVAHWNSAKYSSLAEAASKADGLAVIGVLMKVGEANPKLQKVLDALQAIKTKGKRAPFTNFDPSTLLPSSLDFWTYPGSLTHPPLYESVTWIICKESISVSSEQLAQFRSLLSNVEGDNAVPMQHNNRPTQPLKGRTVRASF

Regarding `CCN[C@H]1CC(CCCOC)S(=O)(=O)c2sc(S(N)(=O)=O)cc21` (stereo not given in full), the Ki on Carbonic anhydrase 4 is 45 nM. On to `CC(=O)Nc1ccc(S(=O)(=O)Nc2nnc(S(N)(=O)=O)s2)cc1Br`, for which the Ki on Carbonic anhydrase 2 was 2 nM; on Carbonic anhydrase 4, 4 nM. In the case of `CCCCCC(=O)Nc1ccc(S(N)(=O)=O)cc1`, the inhibitory constant (Ki) on Carbonic anhydrase 2 worked out at 63 nM; at Carbonic anhydrase 4, 980 nM; on Carbonic anhydrase 1 it was 14200 nM.

Compound `NS(=O)(=O)c1ccc(CCNC(=O)c2cc3ccccc3oc2=O)cc1` had an inhibition constant (Ki) at Carbonic anhydrase 1 of 66 nM. `NS(=O)(=O)c1ccc(CNS(=O)(=O)c2ccccc2)cc1` displayed an inhibitory constant (Ki) on Carbonic anhydrase 4 of 64 nM. For the compound `CC(C)(C)C(=O)Nc1ccc(S(N)(=O)=O)cc1`, the Ki on Carbonic anhydrase 4 stood at 2550 nM. Turning to `CC(=O)Nc1ccc(S(=O)(=O)NCCc2ccc(S(N)(=O)=O)cc2)cc1`, the Ki at Carbonic anhydrase 2 was found to be 75 nM; at Carbonic anhydrase 4, 119 nM; on Carbonic anhydrase 1, 187 nM. Regarding `CC(C)C(=O)Nc1ccc(S(N)(=O)=O)cc1`, the Ki at Carbonic anhydrase 4 worked out at 2840 nM.

Take `CC(=O)Nc1ccc(S(=O)(=O)Nc2nnc(S(N)(=O)=O)s2)cc1Cl`: the Ki was 1 nM on Carbonic anhydrase 2, 4 nM on Carbonic anhydrase 4 and 5 nM at Carbonic anhydrase 1. On to `NS(=O)(=O)c1ccc(NC(=O)c2ccccc2)cc1`, for which, on Carbonic anhydrase 4, affinity was put at a Ki of 176 nM. `CC(C)(C)C(=O)Nc1nnc(S(N)(=O)=O)s1`: the results for the Ki on Carbonic anhydrase 4 and on Carbonic anhydrase 1 were 185 nM and 645 nM, respectively. On to `CCCC(=O)Nc1ccc(S(N)(=O)=O)cc1`, for which the Ki on Carbonic anhydrase 4 was determined as 2540 nM. Take `NS(=O)(=O)c1ccc(CCNS(=O)(=O)c2ccccc2)cc1`: the Ki on Carbonic anhydrase 2 is 28 nM; at Carbonic anhydrase 4 it was 39 nM; on Carbonic anhydrase 1, 69 nM.

Regarding `NS(=O)(=O)c1ccc(NS(=O)(=O)c2ccc([N+](=O)[O-])cc2)cc1`, the values for the inhibitory constant (Ki) on Carbonic anhydrase 2, on Carbonic anhydrase 4 and at Carbonic anhydrase 1 were 10 nM, 22 nM and 31 nM, respectively.

In turn, `NS(=O)(=O)c1ccc(CNC(=O)c2cc3ccccc3oc2=O)cc1` showed a Ki on Carbonic anhydrase 1 of 69 nM.

The compound `NS(=O)(=O)c1ccc(NS(=O)(=O)c2ccccc2)cc1` returned a Ki at Carbonic anhydrase 4 of 85 nM. On to `NS(=O)(=O)c1ccc(NS(=O)(=O)c2ccc(F)cc2)cc1`, for which the Ki on Carbonic anhydrase 2 is 9 nM; at Carbonic anhydrase 4 it was 15 nM; on Carbonic anhydrase 1 it was 40 nM. Compound `NS(=O)(=O)c1ccc(NC(=O)c2cc3ccccc3oc2=O)cc1` had a Ki on Carbonic anhydrase 1 of 74 nM. Regarding `NS(=O)(=O)c1ccc(/N=C\c2ncc[nH]2)cc1`, the Ki was 120 nM at Carbonic anhydrase 2, 130 nM at Carbonic anhydrase 4 and 1000 nM on Carbonic anhydrase 1. For `Cn1nc(S(N)(=O)=O)s/c1=N/C(=O)CCCCC(F)(F)C(F)(F)F`, the Ki on Carbonic anhydrase 4 was 8 nM; at Carbonic anhydrase 1 it was 270 nM. As to `NS(=O)(=O)c1ccc(CCNC(=O)Nc2ccc(Cl)c(Cl)c2)cc1`, the Ki came to 13 nM on Carbonic anhydrase 2, 20 nM at Carbonic anhydrase 4 and 12 nM on Carbonic anhydrase 1. On Carbonic anhydrase 4, `CCC(=O)Nc1ccc(S(N)(=O)=O)cc1` displayed a Ki of 2630 nM.

For `CC(=O)Nc1ccc(S(=O)(=O)Nc2nnc(S(N)(=O)=O)s2)cc1F`, the Ki came out at 1 nM on Carbonic anhydrase 2 and 6 nM on Carbonic anhydrase 1.

Turning to `NS(=O)(=O)c1ccc(CNC(=O)Nc2ccccc2)cc1`, the Ki was 140 nM at Carbonic anhydrase 4 and 800 nM on Carbonic anhydrase 1.

As to `Cn1nc(S(N)(=O)=O)s/c1=N/C(=O)c1ccccc1`, the Ki amounted to 17 nM at Carbonic anhydrase 2, 174 nM on Carbonic anhydrase 4 and 850 nM at Carbonic anhydrase 1. Consider `NS(=O)(=O)c1ccc(NC(=O)CCCCC(F)(F)C(F)(F)F)cc1`, for which the results for the Ki at Carbonic anhydrase 4 and at Carbonic anhydrase 1 were 600 nM and 950 nM, respectively. Taken in the same sequence, the figures for `NS(=O)(=O)c1nnc(NC(=O)c2ccccc2)s1` were 163 nM and 900 nM.

As to `CC(=O)Nc1ccc(S(=O)(=O)Nc2nnc(S(N)(=O)=O)s2)cc1`, the Ki amounted to 3 nM at Carbonic anhydrase 2 and 8 nM at Carbonic anhydrase 4. In the case of `Cn1nc(S(N)(=O)=O)s/c1=N/C(=O)c1ccco1`, the figures for the Ki on Carbonic anhydrase 2, at Carbonic anhydrase 4 and at Carbonic anhydrase 1 were 6 nM, 30 nM and 290 nM, respectively. In the case of `CCCCC(=O)Nc1ccc(S(N)(=O)=O)cc1`, the Ki on Carbonic anhydrase 4 is 2370 nM.

For the compound `NS(=O)(=O)c1nnc(NC(=O)CCCCC(F)(F)C(F)(F)F)s1`, the Ki was 2 nM at Carbonic anhydrase 2, 10 nM at Carbonic anhydrase 4 and 250 nM on Carbonic anhydrase 1.

For the compound `NS(=O)(=O)c1ccc(NC(=O)C(F)(F)F)cc1`, the affinity on Carbonic anhydrase 4, expressed as Ki, was 2100 nM. Regarding `CC(=O)Nc1ccc(S(N)(=O)=O)cc1`, the Ki worked out at 246 nM at Carbonic anhydrase 2, 2850 nM on Carbonic anhydrase 4 and 21400 nM at Carbonic anhydrase 1.

A word on the Ki: it is a dissociation constant, usually derived from enzyme kinetics or from competition with a known ligand.
